Laboratory results: patent US6790629B2 (The Regents of the University of California, priority 1997, dated 2004)

How the values were obtained:
VR1 [1] = biological target: T1, VR1 (Rattus norvegicus, UniProt O35433); experiment: Two-electrode voltage clamp of VR1-injected oocytes: capsaicin, heat, heat plus ruthenium red; format: cell-based; details: n=5; for mean inward current response ± s.e.m.: Vhold=-60 mV
T1 construct: open reading frame encoding a protein of 838 amino acids; expressed in transfected cells; host or cells: Xenopus laevis oocytes injected with VR1 cRNA
T1 sequence (O35433 whole entry): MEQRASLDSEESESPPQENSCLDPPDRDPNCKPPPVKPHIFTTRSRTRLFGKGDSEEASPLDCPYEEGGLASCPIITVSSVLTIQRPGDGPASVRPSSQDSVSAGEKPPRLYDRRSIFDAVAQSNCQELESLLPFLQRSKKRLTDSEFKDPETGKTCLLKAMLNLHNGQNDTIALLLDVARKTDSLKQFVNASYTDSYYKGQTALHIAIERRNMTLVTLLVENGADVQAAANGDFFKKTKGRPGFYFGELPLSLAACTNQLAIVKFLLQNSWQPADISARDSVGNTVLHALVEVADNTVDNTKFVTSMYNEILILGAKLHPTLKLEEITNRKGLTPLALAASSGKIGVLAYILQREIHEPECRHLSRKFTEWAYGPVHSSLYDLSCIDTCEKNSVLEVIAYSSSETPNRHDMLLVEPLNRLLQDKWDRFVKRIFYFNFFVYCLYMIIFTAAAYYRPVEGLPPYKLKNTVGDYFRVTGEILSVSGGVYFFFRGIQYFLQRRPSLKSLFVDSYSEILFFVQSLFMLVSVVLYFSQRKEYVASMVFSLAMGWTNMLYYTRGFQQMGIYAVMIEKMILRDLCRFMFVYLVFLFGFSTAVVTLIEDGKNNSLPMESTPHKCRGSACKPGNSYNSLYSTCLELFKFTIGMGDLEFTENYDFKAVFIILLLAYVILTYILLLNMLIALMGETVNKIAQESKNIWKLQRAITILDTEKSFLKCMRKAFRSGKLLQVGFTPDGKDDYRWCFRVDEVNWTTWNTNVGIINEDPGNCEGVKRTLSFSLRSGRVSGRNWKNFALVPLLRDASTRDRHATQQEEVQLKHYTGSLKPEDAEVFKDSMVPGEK
Procedure: (§1) To determine whether VR1 could mediate similar responses to heat in a different cellular environment, heat activation of VR1 was tested in the oocyte system. Oocytes injected with either VR1 cRNA or water were subjected to two-electrode voltage-clamp (Vhold=−60 mV) while the temperature of the perfusing buffer was raised from 22.7° C. to the level indicated, then held constant for 60 sec. (VR1, n =8; water, n=6 independent cells).
(§2) The current tracings shown in FIG. 17 were generated from representative VR1- or water-injected oocytes (Vhold=−60 mV) during successive applications of the indicated stimuli.

VR1 [2] = biological target: T1, VR1; experiment: Whole-cell two-electrode voltage clamp of VR1-expressing Xenopus oocytes (vanilloid agonists and antagonists); format: cell-based; details: for recovery of current response following agonist removal: washout; for Hill coefficient: from agonist concentration-response analysis in VR1-expressing oocytes
Procedure: Briefly, cRNA transcripts were synthesized from Not1-linearized VR1 cDNA templates using T7 RNA polymerase 17. Defolliculated Xenopus laevis oocytes were injected with 0.5-5 ng VR1 cRNA. Four to seven days after injection, two electrode voltage clamp recording was performed (Ehold=−60 mV for IC50 curve and thermal stimulation experiments, and […] for all other experiments) using a Geneclamp 500 amplifier (Axon Instruments) and a MacLab A/D converter (Maclab). The recording chamber was perfused at a rate of 2 ml/min with frog ringers solution containing (mM) 90 NaCl; 1.0 KCl, 2.4 NaHCO3, 0.1 BaCl2, 1.0 MgCl2, and 10 HEPES, pH 7.6. at room temperature. Prior to performing the store-operated current assays, oocytes were incubated for 1-2 hrs in calcium-free, barium-free frog ringers solution containing 1 mM EGTA and 1 μM Thapsigargin. During voltage clamp recording, these oocytes were intermittently exposed to frog ringer's solution containing 2 mM Ca2+ and no EGTA to detect calcium-dependent currents (15 second pulses at 2 minute intervals) (Petersen et al. 1995 Biochem J. 311:4144).
VR1 was expressed in Xenopus oocytes as described above (Example 3), except that CaCl2 (2 mM) was used in place of BaCl2 when generating the capsazepine inhibition curve. […] Membrane currents were recorded in the whole cell voltage clamp configuration (Vhold=−40 mV).

water-injected oocytes = experiment: Two-electrode voltage clamp of water-injected control oocytes: capsaicin, heat, heat plus ruthenium red; format: cell-based, Xenopus
Procedure: as §1, with “cells). The asterisk indicates a significant difference from water-injected oocytes (T-test, P<0.0005).” for “cells).”
as §2

VRRP-1 = biological target: T2, VRRP-1 (Rattus norvegicus, UniProt Q9WUD2); experiment: Activation of VRRP-1 by capsaicin
T2 sequence (Q9WUD2 1-761): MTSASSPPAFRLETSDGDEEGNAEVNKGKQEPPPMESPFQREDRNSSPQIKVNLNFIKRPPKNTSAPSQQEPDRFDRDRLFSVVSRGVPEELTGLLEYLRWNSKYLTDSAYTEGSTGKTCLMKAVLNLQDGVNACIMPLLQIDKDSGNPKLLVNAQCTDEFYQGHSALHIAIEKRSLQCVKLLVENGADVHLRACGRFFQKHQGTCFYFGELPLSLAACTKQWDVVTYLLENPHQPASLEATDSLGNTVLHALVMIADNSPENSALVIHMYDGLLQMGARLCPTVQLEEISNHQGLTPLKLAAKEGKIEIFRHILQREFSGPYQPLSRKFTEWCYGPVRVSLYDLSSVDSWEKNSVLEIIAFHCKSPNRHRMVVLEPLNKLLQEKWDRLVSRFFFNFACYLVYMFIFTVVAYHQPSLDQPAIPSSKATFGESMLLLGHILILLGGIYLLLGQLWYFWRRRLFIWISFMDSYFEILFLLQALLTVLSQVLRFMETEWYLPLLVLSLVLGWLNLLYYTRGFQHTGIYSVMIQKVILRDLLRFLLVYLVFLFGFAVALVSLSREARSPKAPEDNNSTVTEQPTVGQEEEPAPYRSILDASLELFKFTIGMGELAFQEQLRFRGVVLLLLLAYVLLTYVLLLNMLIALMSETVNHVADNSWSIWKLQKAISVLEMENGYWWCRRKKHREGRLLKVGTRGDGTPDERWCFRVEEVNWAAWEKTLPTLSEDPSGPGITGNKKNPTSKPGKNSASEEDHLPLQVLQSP

VR1 [3] = biological target: T1, VR1; experiment: Whole-cell patch clamp of VR1-transfected HEK293 cells, desensitization of capsaicin-evoked current; format: cell-based
Procedure: Patch-clamp recordings were carried out with transiently transfected HEK293 cells at 22° C. Standard bath solution for whole-cell recordings contained (mM) 140 NaCl, 5 KCl, 2 MgCl2, 2 CaCl2, 10 HEPES, 10 glucose, pH 7.4 (adjusted with NaOH). In calcium-free bath solution, CaCl2 was removed and 5 mM EGTA was added.
Bath solution for outside-out patch recordings and pipette solution for inside-out patch recordings contained (mM) 140 NaCl, 10 HEPES, pH 7.4 (adjusted with NaOH). Bath solution for inside-out patch recordings and pipette solutions for outside-out patch recordings and ion substitution experiments contained: (mM) 140 NaCl, 10 HEPES, 5 EGTA, pH 7.4 (adjusted with NaOH). Pipette solution for whole-cell recordings contained (mM) 140 CsCl (or 130 CsAspartate and 10 NaCl), 5 EGTA, 10 HEPES, pH 7.4 (adjusted with CsOH).
Whole-cell recording data were sampled at 20 kHz and filtered at 5 kHz for analysis (Axopatch 200 amplifier with pCLAMP software, Axon Instruments). Single-channel recording data were sampled at 10 kHz and filtered at 1 kHz. Permeability ratios for monovalent cations to Na (PX/PNa) were calculated as follows:

VR1 [4] = biological target: T1, VR1; experiment: Hydrogen ion potentiation of capsaicin response in VR1-expressing oocytes; format: cell-based; details: 10 μM capsaicin
Excerpt: To address this possibility, the effects of hydrogen ions on the cloned vanilloid receptor were examined using the oocyte expression system. […] The pH of the bath solution was changed during the experiment (as indicated by the horizontal bars in FIG. 13).

[5] = system: chick orthologue of rat VR1 (pCVR2); experiment: Electrophysiological and calcium-imaging analysis of HEK293 cells transfected with pCVR2; format: cell-based

N.N.N.N.N.N.N.N.N.N.N.N.N.N.[Cl-].[Cl-].[Cl-].[Cl-].[Cl-].[Cl-].[O-2].[O-2].[Ru+3].[Ru+3].[Ru+4] [ruthenium red]
mean inward current response ± s.e.m. (VR1 [1]; heat (50° C.) plus ruthenium red 10 μM): 243±47 nA
inhibition of heat response (VR1 [1]; ruthenium red 10 μM, heat 50° C., VR1-injected oocytes): 88±2%
antagonism of responses to resiniferatoxin (50 nM) (VR1 [2]; ruthenium red 10 μM): reversibly antagonized
block of capsaicin-evoked responses (cap; 0.6 μM) (VR1 [2]; ruthenium red 10 μM): blocked capsaicin-evoked responses
inhibition of heat response (water-injected oocytes; ruthenium red 10 μM, n=5): 21±26%

COc1cc(CNC(=O)CCCC/C=C/C(C)C)ccc1O [capsaicin]
activation of VRRP-1 (VRRP-1): does not appear to be activated
mean inward current response ± s.e.m. (VR1 [1]; capsaicin 1 μM): 1221±148 nA
decrease of response between first and third applications (VR1 [3]; absence of extracellular calcium, n=3): 4.7±2.3%
decrease of response between first and third applications (desensitizing component) (VR1 [3]; calcium-containing bath solution, n=5): 87±4.3%
effect of reduced pH on capsaicin response (VR1 [4]): did not augment
recovery of current response following agonist removal (VR1 [2]; VR1-expressing oocytes): returned rapidly to baseline
Hill coefficient (VR1 [2]): 2.08
response of the encoded protein ([5]; capsaicin): not to capsaicin
response to capsaicin (water-injected oocytes): no response

COc1ccc(CCCOC(Cn2ccnc2)c2ccc(OC)cc2)cc1 (centres unmarked) [SKF 96365]
effect on capsaicin-evoked currents (VR1 [2]; SKF 96365 20 μM, VR1-expressing oocytes): no effect

C=C(C)[C@]12C[C@@H](C)[C@@]34O[C@](Cc5ccccc5)(O[C@@H]1[C@@H]3C=C(COC(=O)Cc1ccc(O)c(OC)c1)C[C@]1(O)C(=O)C(C)=C[C@@H]41)O2 [resiniferatoxin]
EC50 (VR1 [2]): 39.1 nM
potency relative to capsaicin (VR1 [2]; EC50 comparison in VR1-expressing oocytes): approximately 20 fold
recovery of current response following agonist removal (VR1 [2]; VR1-expressing oocytes): often failed to recover
Hill coefficient (VR1 [2]): 1.95
response of the encoded protein ([5]; high doses of resiniferatoxin): responds

Oc1cc2c(cc1O)CN(C(=S)NCCc1ccc(Cl)cc1)CCC2 [capsazepine]
IC50 (VR1 [2]; VR1-expressing oocytes, CaCl2 2 mM in place of BaCl2, read-out: IC50, block of capsaicin-evoked responses): 283 nM
antagonism of responses to resiniferatoxin (50 nM) (VR1 [2]; capsazepine 5 μM): reversibly antagonized
block of capsaicin activity (cap; 0.6 μM) (VR1 [2]; capsazepine 10 μM): reversible
